{
  "source": "the supplement of paper PMC10307832",
  "assay_in_all_cases": "relative viability (nuclei count vs DMSO), 5 days (fraction); higher = more cells survive",
  "key": {"[1]": {"compound": "COc1cc2nc(N3CCCN(C)CC3)nc(NC3CCN(Cc4ccccc4)CC3)c2cc1OC + CC(=O)c1c(C)c2cnc(Nc3ccc(N4CCNCC4)cn3)nc2n(C2CCCC2)c1=O [Palbociclib] (partner 0.5 µM)", "summary_of_the_method": "(§1)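 Relative viability was taken as the ratio of nuclei in treated wells to nuclei in vehicle wells. Lung cancer cell lines in 1536-well plates received compounds by pin tool one day after seeding, either one drug alone or a fixed anchor-drug dose plus five library-drug doses (not always all listed) in √10 steps. Nuclei were counted on 4× images after 5 days of treatment, and values are medians of duplicate plates.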"}, "[2]": {"compound": "Cc1cc([C@@H](C)Nc2ccccc2C(=O)O)c2nc(N3CCOCC3)cc(=O)n2c1 [AZD6482] + CC(C)C[C@H](NC(=O)[C@H](Cc1ccccc1)NC(=O)c1cnccn1)B(O)O [Bortezomib] (partner 0.002 µM)", "summary_of_the_method": "as §1"}, "[3]": {"compound": "COc1cc2nc(N3CCCN(C)CC3)nc(NC3CCN(Cc4ccccc4)CC3)c2cc1OC + C[C@@H](Oc1cc(-c2cnn(C3CCNCC3)c2)cnc1N)c1c(Cl)ccc(F)c1Cl [Crizotinib] (partner 1 µM)", "summary_of_the_method": "as §1"}, "[4]": {"compound": "Cc1cc([C@@H](C)Nc2ccccc2C(=O)O)c2nc(N3CCOCC3)cc(=O)n2c1 [AZD6482] + O=C(CCCCCCC(=O)Nc1ccccc1)NO [Vorinostat] (partner 1 µM)", "summary_of_the_method": "as §1"}},
  "data": [
    {"cell line": "PC-3 [JPC-3]", "values": [
      {"measurement": "relative viability", "setting": "[1]; first compound 0.2 µM", "result": 0.542},
      {"measurement": "relative viability", "setting": "[1]; first compound 0.6325 µM", "result": 0.591},
      {"measurement": "relative viability", "setting": "[1]; first compound 2 µM", "result": 0.578},
      {"measurement": "relative viability", "setting": "[1]; first compound 6.325 µM", "result": 0.468},
      {"measurement": "relative viability", "setting": "[2]; first compound 0.08 µM", "result": 0.658},
      {"measurement": "relative viability", "setting": "[2]; first compound 0.253 µM", "result": 0.844},
      {"measurement": "relative viability", "setting": "[2]; first compound 0.8 µM", "result": 0.843},
      {"measurement": "relative viability", "setting": "[2]; first compound 2.53 µM", "result": 0.761},
      {"measurement": "relative viability", "setting": "[2]; first compound 8 µM", "result": 0.713},
      {"measurement": "relative viability", "setting": "[3]; first compound 0.2 µM", "result": 0.972},
      {"measurement": "relative viability", "setting": "[3]; first compound 0.6325 µM", "result": 0.974},
      {"measurement": "relative viability", "setting": "[3]; first compound 2 µM", "result": 1.11},
      {"measurement": "relative viability", "setting": "[3]; first compound 6.325 µM", "result": 0.869},
      {"measurement": "relative viability", "setting": "[4]; first compound 0.08 µM", "result": 0.766},
      {"measurement": "relative viability", "setting": "[4]; first compound 0.253 µM", "result": 0.797},
      {"measurement": "relative viability", "setting": "[4]; first compound 0.8 µM", "result": 0.84},
      {"measurement": "relative viability", "setting": "[4]; first compound 2.53 µM", "result": 0.457},
      {"measurement": "relative viability", "setting": "[4]; first compound 8 µM", "result": 0.571}
    ]},
    {"cell line": "PC-14", "values": [
      {"measurement": "relative viability", "setting": "[1]; first compound 0.2 µM", "result": 0.536},
      {"measurement": "relative viability", "setting": "[1]; first compound 0.6325 µM", "result": 0.477},
      {"measurement": "relative viability", "setting": "[1]; first compound 2 µM", "result": 0.446},
      {"measurement": "relative viability", "setting": "[1]; first compound 6.325 µM", "result": 0.0369},
      {"measurement": "relative viability", "setting": "[2]; first compound 0.08 µM", "result": 0.785},
      {"measurement": "relative viability", "setting": "[2]; first compound 0.253 µM", "result": 0.917},
      {"measurement": "relative viability", "setting": "[2]; first compound 0.8 µM", "result": 0.913},
      {"measurement": "relative viability", "setting": "[2]; first compound 2.53 µM", "result": 0.67},
      {"measurement": "relative viability", "setting": "[2]; first compound 8 µM", "result": 1.02},
      {"measurement": "relative viability", "setting": "[3]; first compound 0.2 µM", "result": 0.932},
      {"measurement": "relative viability", "setting": "[3]; first compound 0.6325 µM", "result": 0.883},
      {"measurement": "relative viability", "setting": "[3]; first compound 2 µM", "result": 1.08},
      {"measurement": "relative viability", "setting": "[3]; first compound 6.325 µM", "result": 0.83},
      {"measurement": "relative viability", "setting": "[4]; first compound 0.08 µM", "result": 0.667},
      {"measurement": "relative viability", "setting": "[4]; first compound 0.253 µM", "result": 0.716},
      {"measurement": "relative viability", "setting": "[4]; first compound 0.8 µM", "result": 0.712},
      {"measurement": "relative viability", "setting": "[4]; first compound 2.53 µM", "result": 0.487},
      {"measurement": "relative viability", "setting": "[4]; first compound 8 µM", "result": 0.769}
    ]},
    {"cell line": "RERF-LC-KJ", "values": [
      {"measurement": "relative viability", "setting": "[1]; first compound 0.2 µM", "result": 0.982},
      {"measurement": "relative viability", "setting": "[1]; first compound 0.6325 µM", "result": 1.11},
      {"measurement": "relative viability", "setting": "[1]; first compound 2 µM", "result": 1.13},
      {"measurement": "relative viability", "setting": "[1]; first compound 6.325 µM", "result": 0.909},
      {"measurement": "relative viability", "setting": "[2]; first compound 0.08 µM", "result": 0.825},
      {"measurement": "relative viability", "setting": "[2]; first compound 0.253 µM", "result": 0.907},
      {"measurement": "relative viability", "setting": "[2]; first compound 0.8 µM", "result": 0.895},
      {"measurement": "relative viability", "setting": "[2]; first compound 2.53 µM", "result": 0.921},
      {"measurement": "relative viability", "setting": "[2]; first compound 8 µM", "result": 0.865},
      {"measurement": "relative viability", "setting": "[3]; first compound 0.2 µM", "result": 0.721},
      {"measurement": "relative viability", "setting": "[3]; first compound 0.6325 µM", "result": 0.82},
      {"measurement": "relative viability", "setting": "[3]; first compound 2 µM", "result": 0.872},
      {"measurement": "relative viability", "setting": "[3]; first compound 6.325 µM", "result": 0.853},
      {"measurement": "relative viability", "setting": "[4]; first compound 0.08 µM", "result": 0.648},
      {"measurement": "relative viability", "setting": "[4]; first compound 0.253 µM", "result": 0.616},
      {"measurement": "relative viability", "setting": "[4]; first compound 0.8 µM", "result": 0.557},
      {"measurement": "relative viability", "setting": "[4]; first compound 2.53 µM", "result": 0.648},
      {"measurement": "relative viability", "setting": "[4]; first compound 8 µM", "result": 0.514}
    ]},
    {"cell line": "SK-LU-1", "values": [
      {"measurement": "relative viability", "setting": "[1]; first compound 0.2 µM", "result": 0.409},
      {"measurement": "relative viability", "setting": "[1]; first compound 0.6325 µM", "result": 0.353},
      {"measurement": "relative viability", "setting": "[1]; first compound 2 µM", "result": 0.394},
      {"measurement": "relative viability", "setting": "[1]; first compound 6.325 µM", "result": 0.375},
      {"measurement": "relative viability", "setting": "[2]; first compound 0.08 µM", "result": 0.776},
      {"measurement": "relative viability", "setting": "[2]; first compound 0.253 µM", "result": 0.642},
      {"measurement": "relative viability", "setting": "[2]; first compound 0.8 µM", "result": 1.16},
      {"measurement": "relative viability", "setting": "[2]; first compound 2.53 µM", "result": 0.589},
      {"measurement": "relative viability", "setting": "[2]; first compound 8 µM", "result": 0.46},
      {"measurement": "relative viability", "setting": "[3]; first compound 0.2 µM", "result": 0.858},
      {"measurement": "relative viability", "setting": "[3]; first compound 0.6325 µM", "result": 0.943},
      {"measurement": "relative viability", "setting": "[3]; first compound 2 µM", "result": 0.92},
      {"measurement": "relative viability", "setting": "[3]; first compound 6.325 µM", "result": 0.536},
      {"measurement": "relative viability", "setting": "[4]; first compound 0.253 µM", "result": 0.767},
      {"measurement": "relative viability", "setting": "[4]; first compound 0.8 µM", "result": 0.812},
      {"measurement": "relative viability", "setting": "[4]; first compound 2.53 µM", "result": 0.591},
      {"measurement": "relative viability", "setting": "[4]; first compound 8 µM", "result": 0.517}
    ]},
    {"cell line": "SW 1573", "values": [
      {"measurement": "relative viability", "setting": "[1]; first compound 0.2 µM", "result": 0.365},
      {"measurement": "relative viability", "setting": "[1]; first compound 0.6325 µM", "result": 0.417},
      {"measurement": "relative viability", "setting": "[1]; first compound 2 µM", "result": 0.377},
      {"measurement": "relative viability", "setting": "[1]; first compound 6.325 µM", "result": 0.196},
      {"measurement": "relative viability", "setting": "[2]; first compound 0.08 µM", "result": 0.92},
      {"measurement": "relative viability", "setting": "[2]; first compound 0.253 µM", "result": 0.86},
      {"measurement": "relative viability", "setting": "[2]; first compound 0.8 µM", "result": 0.877},
      {"measurement": "relative viability", "setting": "[2]; first compound 2.53 µM", "result": 0.613},
      {"measurement": "relative viability", "setting": "[2]; first compound 8 µM", "result": 0.633},
      {"measurement": "relative viability", "setting": "[3]; first compound 0.2 µM", "result": 0.893},
      {"measurement": "relative viability", "setting": "[3]; first compound 0.6325 µM", "result": 0.845},
      {"measurement": "relative viability", "setting": "[3]; first compound 2 µM", "result": 0.88},
      {"measurement": "relative viability", "setting": "[3]; first compound 6.325 µM", "result": 0.819},
      {"measurement": "relative viability", "setting": "[4]; first compound 0.08 µM", "result": 0.766},
      {"measurement": "relative viability", "setting": "[4]; first compound 0.253 µM", "result": 0.681},
      {"measurement": "relative viability", "setting": "[4]; first compound 0.8 µM", "result": 0.654},
      {"measurement": "relative viability", "setting": "[4]; first compound 2.53 µM", "result": 0.58},
      {"measurement": "relative viability", "setting": "[4]; first compound 8 µM", "result": 0.48}
    ]}
  ]
}
